What was measured:
GRPR [1] = target: T1, GRPR (Homo sapiens, UniProt P30550); test: Intracellular calcium assay; format: cell-based; conditions: 10 nM peptide, HEK293, Fluo8, GRPR
T1 construct: HA; expressed in transfected cells; host or cells: HEK293
Experimental: Intracellular calcium was measured using the non-wash calcium assay Fluo8 kit (ab112129, Abcam) according to the manufacturer’s instructions. Briefly, HEK293 cells were seeded in 24-well plates and were transfected with GRPR, NMBR, BRS3, or the empty vector plasmid pcDNA3.1-V5-His (300 ng) and incubated overnight at 37°C with 5% CO2. The next day, the cells were replated into a 96-well assay plate (black plate and clear bottom). After 12 h, growth media were aspirated, and calcium dye was added. […] The basal fluorescence intensity was recorded 15 times at 1 Hz for […]. The results were normalized to the average basal fluorescence intensity in ratio, and the peak response was used for the result calculation. Calcium fold was calculated using no stimulation data as standard value.

GRPR [2] = target: T1, GRPR; test: Radioligand binding (competition); conditions: [125I]-Tyr42-GRP
Experimental: HEK293 cells were seeded in a 10-cm tissue culture dish at a density of 10^6 cells per dish and grown overnight at 37°C in growth medium. The following morning, 5 μg of different species’ BRS3 plasmids were transfected. After 6 h, the medium was replaced with growth medium. Cells were maintained at 37°C in a 5% CO2 atmosphere and used 48 h later for binding assays. The positive control group included transfected GRPR and NMBR; the test group consisted of transfected BRS3 from different species. Then, [^125I]-Tyr^42-GRP and [^125I]-Tyr-NMB were used as the ligands to assess affinity to the various receptors. […] After the incubation, 100 μl aliquots were added to 1.5-ml microfuge tubes, which contained 100 μl of binding buffer to determine the total radioactivity. […] The amount of radioactivity bound to the cells was measured in a Cobra II Gamma counter (Packard Instruments). Binding was expressed as the percentage of total radioactivity that was associated with the cell pellet. […] Each point was measured in duplicate, and each experiment was replicated at least four times. […] All the experiment data were calculated using 1 pM ligand-treated as 100% control.

T1 sequence (P30550 whole entry, species assumed): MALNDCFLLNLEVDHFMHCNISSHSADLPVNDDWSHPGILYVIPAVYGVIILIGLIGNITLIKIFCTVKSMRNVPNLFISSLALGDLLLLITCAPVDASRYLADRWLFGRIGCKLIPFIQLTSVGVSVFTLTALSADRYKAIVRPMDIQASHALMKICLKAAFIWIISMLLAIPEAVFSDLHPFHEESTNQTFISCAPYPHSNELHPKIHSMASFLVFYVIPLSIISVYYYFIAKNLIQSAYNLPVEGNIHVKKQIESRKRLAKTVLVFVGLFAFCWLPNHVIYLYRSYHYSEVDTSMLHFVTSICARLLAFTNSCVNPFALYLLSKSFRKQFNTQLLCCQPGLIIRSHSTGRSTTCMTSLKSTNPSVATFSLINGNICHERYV

Row | Substance | Calcium fold (GRPR [1]; replicate 1) | Calcium fold (GRPR [1]; replicate 2) | Calcium fold (GRPR [1]; replicate 3) | Inhibition of GRPR–GRP binding (in words) (GRPR [2])
1 | GSHWAVGHLM-NH2 [GRP, gastrin-releasing peptide] | 5.512 fold | 5.7711 fold | 5.9191 fold | 
2 | neuromedin B [NMB] |  |  |  | very low affinity

— article PMC6422423, “Constitutively active BRS3 is a genuinely orphan GPCR in placental mammals” (PLoS Biology, 2019)
